Read-outs that look alike come from different tables or passages of the source.
Assays:
[1] = test system: extravasation in the ears of mice; assay: Extravasation (Evans Blu) induced by phlogogenic agents in the ears of mice; format: in vivo; settings: for % inhibition of extravasation, PAF: 1 h; for % inhibition of extravasation, Zymosan: 2 h; for % inhibition of extravasation, Arachidonic Acid / % inhibition of extravasation, Bradykinin / % inhibition of extravasation, Histamine: 30 min; for ED50: OS, mouse ear
Experimental: b) Some of the compounds of the invention, such as compounds I-4, I-11 and I-31, were evaluated in vivo in a series of experimental extravasation models in which 5 μl of the preselected phlogogenic agent dissolved in physiological solution was injected intradermally into the ears of mice as described by Erdo et al., with slight modifications [Agents and Actions 39, 137-142 (1993)].
The products under test were administered orally 1 hour before the challenge and, 30 minutes before the challenge, the dye Evans Blu was injected intravenously in a dose of 100 mg/kg. The animals were killed at a time predetermined according to the test, 30 min.—2 hours after the challenge. The extravasation was evaluated by determining the quantity of dye present in the ear, extracted after homogenisation of the tissue in 2 ml of formamide and incubation at 50° C. for 2 hours. After centrifuging, the amount of dye was determined by measuring the absorption at 620 nm. The maximum % effect (% MPE) was calculated by the following formula:
[formula] in which EV is the mean absorption observed in the group of animals treated solely with the phlogogenic agent, ED is the group treated with the phlogogenic agent and the drug, and EB is the base value, that is, the value for the animals injected with physiological solution alone.
The phlogogenic agents used were:
Arachidonic acid (dissolved in EtOH); (1 mg/mouse; killed+30 min); histamine (3 nmoli/mouse; killed+30 min); PAF (30 pmoli/mouse; killed+60 min); Zymosan (10 μg/mouse; killed+120 min); bradykinin (0.6 nmoli/mouse; killed+30 min).

formation of PGE2 = assay: Inhibition of PGE2 formation in rabbit joint chondrocytes stimulated by IL-1β (RIA); format: cell-based; settings: Oryctolagus cuniculus, Chondrocyte, IL-1β 1 ng/ml, 48 hours
Experimental: a) The activity in inhibiting the formation of NO, measured as NO2^− (nitrites), PGE2, and neutral protease, was investigated in vitro on culture broths of rabbit joint chondrocytes stimulated by cytokine IL-1β (1 ng/ml) for 48 hours. For the preparation of the chondrocytes, the method described by Berenbaum et al [FEBS Letters 340, 51-55 (1994)] was followed. Briefly, fragments of cartilage removed under sterile conditions from the heads of rabbit shoulder, hip and knee joints were chopped finely and digested at 37° C. by hyaluronidase, trypsin and collagenase solutions, giving rise, after filtration on sterile gauze and centrifuging at 600×g and suitable dilution with 10% DMEM-FCS, to a concentration of approximately 1×10^5 cells per well. The cells were kept in these conditions until confluence (about 15 days), the broth being changed every 3 days. At this point, the products under test, dissolved in the medium, were added to each test sample and, after 20 minutes, 350 μl IL-1β was added in order to have a final concentration of 1 ng/ml. The duration of the stimulation was 48 hours at 37° C. (incubation air-CO2 7%). Measurement of the nitrites, as described by Green et al. [Anal. Biochem. 126, 131-138 (1982)], and of the PGE2s by RIA measurement, was then performed on the cell supernatant fluid. The measurement of the neutral proteases was performed in the cell supernatant fluid containing the p-aminophenyl mercury acetate (APMA) activator with the use of azocoll as the substrate and with incubation at 37° C. for 17 h as described by Chavira et al. [Anal. Biochem. 136, 446-450 (1984)]. In order to evaluate the direct inhibitory effect of the compounds under test on the hydrolytic activity of the cell supernatant fluid, they were added to the supernatant fluid containing the proteases induced by IL-1β and already activated by AMPA.
The results obtained are shown in Table 3, in which the IC50, that is, the concentration (micromolar) of antagonist which can inhibit the formation of nitrites, PGE2s, and neutral proteases, respectively, by 50% relative to the control group, that is, to the cells stimulated with IL-1β but without the addition of antagonists, is given for some of the compounds of the invention already given by way of example in Table 2.

- IC50 (formation of PGE2): 3.3 µM
SMILES: CCCCCNC(=S)Nc1ccc(NC(C)=N)cc1 [Compound I-4, N-[4-(N-acetamidine)phenyl]-N′-pentyl Thiourea]
- % inhibition of extravasation, PAF ([1]; 2.5 mg/kg OS, PAF): 41.9%
- % inhibition of extravasation, Zymosan ([1]; 2.5 mg/kg OS, Zymosan): 40.0%
- % inhibition of extravasation, Arachidonic Acid ([1]; 5 mg/kg OS): 37.8%
- % inhibition of extravasation, Bradykinin ([1]; 5 mg/kg OS): 30.1%
- % inhibition of extravasation, Histamine ([1]; 5 mg/kg OS): 17.8%
- % inhibition of extravasation, PAF ([1]; 5 mg/kg OS, PAF): 49.9%
- % inhibition of extravasation, Zymosan ([1]; 5 mg/kg OS, Zymosan): 66.6%
- % inhibition of extravasation, Arachidonic Acid ([1]; 10 mg/kg OS): 40.0%
- % inhibition of extravasation, Bradykinin ([1]; 10 mg/kg OS): 30.7%
- % inhibition of extravasation, Histamine ([1]; 10 mg/kg OS): 27.7%
- % inhibition of extravasation, PAF ([1]; 10 mg/kg OS, PAF): 55.1%
- % inhibition of extravasation, Zymosan ([1]; 10 mg/kg OS, Zymosan): 65.8%
- % inhibition of extravasation, Arachidonic Acid ([1]; 20 mg/kg OS): 52.6%
- % inhibition of extravasation, Bradykinin ([1]; 20 mg/kg OS): 49.1%
- % inhibition of extravasation, Histamine ([1]; 20 mg/kg OS): 38.8%
- % inhibition of extravasation, PAF ([1]; 20 mg/kg OS, PAF): 56.4%
- % inhibition of extravasation, Zymosan ([1]; 20 mg/kg OS, Zymosan): 83.9%
- % inhibition of extravasation, Arachidonic Acid ([1]; 40 mg/kg OS): 55.5%
- % inhibition of extravasation, Bradykinin ([1]; 40 mg/kg OS): 51.3%
- % inhibition of extravasation, Histamine ([1]; 40 mg/kg OS): 52.5%
- % inhibition of extravasation, PAF ([1]; 40 mg/kg OS, PAF): 66.2%
- % inhibition of extravasation, Zymosan ([1]; 40 mg/kg OS, Zymosan): 89.8%
- % inhibition of extravasation, Zymosan ([1]; 80 mg/kg OS, Zymosan): 95.5%
- inhibition at 5 mg/kg ([1]; Mus musculus, 5 mg/kg, models other than Zymosan, read-out: mean inhibitory effect in the other extravasation models): ~35%
- ED50 ([1]; PAF, read-out: ED50, extravasation induced by PAF): 6.1 mg/kg
- ED50 ([1]; Zymosan, read-out: ED50, extravasation induced by Zymosan): 3.1 mg/kg
- ED50 ([1]; arachidonic acid, read-out: ED50, extravasation induced by AA (arachidonic acid)): 20.5 mg/kg
- ED50 ([1]; bradykinin, read-out: ED50, extravasation induced by Bradykinin): 32.6 mg/kg
- ED50 ([1]; histamine, read-out: ED50, extravasation induced by Histamine): 37 mg/kg

Reference: US7560591B2, “Benzamidine derivatives having anti-inflammatory and immunosuppressive activity” (Rotta Research Laboratorium S.p.A., priority 2001, dated 2009)
